Measured values taken from patent US12012467B2, “Small molecule DCN1 inhibitors and therapeutic methods using the same” (THE REGENTS OF THE UNIVERSITY OF MICHIGAN, priority 2017, dated 2024).
Like-named read-outs stand apart in the source and are kept apart here. Numbered stars: 1 amine (or outer) side, 2 acyl side, 3 side chain; on linkers, the order of the positions; unused ones are H or OH. Square brackets hold non-standard residues; d marks the D form. Peptide text beside a SMILES is read from it. * marks the point of attachment. Ala(6-iPr-benzothiazol-2-yl) = CC(C)c1ccc2nc(C[C@H](N)C(=O)O)sc2c1; Ala(benzothiazol-2-yl) = N[C@@H](Cc1nc2ccccc2s1)C(=O)O; 2Nal = N[C@@H](Cc1ccc2ccccc2c1)C(=O)O; Gly(cPent) = N[C@H](C(=O)O)C1CCCC1; Cha = N[C@@H](CC1CCCCC1)C(=O)O; NHPhenethyl = c1ccc(CCN*)cc1; Isovaleryl = CC(C)CC(=O)*; CO = O=C([*:1])[*:2]; Propionyl = CCC(=O)*; For = O=C*

Target: DCN1 (Homo sapiens (Human), UniProt Q96GG9)
Sequence (Q96GG9 58-259): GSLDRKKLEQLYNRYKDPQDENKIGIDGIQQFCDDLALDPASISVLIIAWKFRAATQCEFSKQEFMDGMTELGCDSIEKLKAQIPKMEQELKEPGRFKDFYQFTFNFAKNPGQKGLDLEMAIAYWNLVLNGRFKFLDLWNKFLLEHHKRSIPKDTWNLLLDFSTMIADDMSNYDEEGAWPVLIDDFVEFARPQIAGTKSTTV
Experiment: Competitive FP binding assay
Outline: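 FP competition with DCN1 in 100 mM phosphate pH 6.5, 0.02% Tween-20, 2% DMSO, probe 5 nM final. Equilibrated 30 min at room temperature with shaking. DCN1 was His6-tagged (uncleaved), expressed in E. coli Rosetta2 and purified by Ni-NTA and gel filtration.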

[1] = read-out: Binding affinity to DCN1 (IC50 (nM))
[2] = bounds given in μM, read-out: Binding affinity to DCN1 (IC50)

| IC50 [1] | IC50 [2] | Compound |
| --- | --- | --- |
| 137 nM | – | CCC(=O)N[C@@H](Cc1nc2cccc(Cl)c2s1)C(=O)N[C@H](C(=O)N[C@@H](CCCCN)C(=O)NC(c1ccccc1)c1ccccc1)C1CCCC1 [Example 31] |
| 704 nM | – | CCC(=O)N[C@@H](Cc1nc(C)c(-c2cccc(Cl)c2)s1)C(=O)N[C@H](CN)C1CCCCC1 [Example 107] |
| 133 nM | – | CCC(=O)N[C@@H](Cc1nc2ccc(C)cc2s1)C(=O)N[C@@H](Cc1ccccn1)C(=O)N[C@@H](CCCCN)C(=O)N[C@@H]1CCOc2ccccc21 [Example 179] |
| 63.1 nM | – | CCC(=O)N[C@@H](Cc1nc2ccc(C(C)C)cc2s1)C(=O)N[C@H](CNC(=O)CCCN1CCOCC1)C1CCCCC1 [Example 59, N—((S)-2-cyclohexyl-2-((S)-3-(6-isopropylbenzo[d]thiazol-2-yl)-2-propionamidopropanamido)ethyl)-4-morpholinobutanamide] |
| – | > 10000 nM | CC[C@H](C)[C@H](NC(=O)[C@H](Cc1ccc2ccccc2c1)NC(=O)NC)C(=O)N[C@@H](CCCCN)C(=O)N[C@@H](CC(C)C)C(N)=O [Example 169] ({NHMe-CO}-[2Nal]IKL-NH2) |
| 163 nM | – | CCC(=O)N[C@@H](Cc1nc2ccc(Cl)cc2s1)C(=O)N[C@H](C(=O)N[C@@H](CCCCN(C)C)C(=O)N[C@@H]1CN(C)Cc2ccccc21)C1CCCC1 [Example 40] |
| – | > 10000 nM | CCC(=O)N[C@H](CNC(=O)[C@H]1CCCCN1)Cc1nc2ccc(C(C)C)cc2s1 [Example 270] |
| 4110 nM | – | CCC(=O)N[C@H](CNC(=O)C1(N)CCC1)Cc1nc2ccc(C(C)C)cc2s1 [Example 113] |
| 802 nM | – | CCC(=O)N[C@H](CNC(=O)CC1CCCC1)Cc1nc2ccc(Cl)cc2s1 [Example 255] |
| 575 nM | – | CCC(=O)N[C@@H](Cc1nc2ccc(Cl)cc2s1)C(=O)N[C@H](C(=O)NCCCCCN(C)C)C1CCCC1 [Example 224] |
| – | > 5000 nM | CCC(=O)N[C@@H](Cc1nc2ccc(Cl)cc2s1)C(=O)N[C@H](C(=O)N[C@@H](CCCCN)C(=O)N[C@@H]1CCOc2ccccc21)C1CCNCC1 [Example 35] |
| 138 nM | – | CCC(=O)N[C@@H](Cc1nc2ccc(C(C)C)cc2s1)C(=O)N[C@@H](CC1CCCCC1)C(=O)N[C@@H](CCCCN)C(=O)N[C@@H](CC(C)C)C(N)=O [Example 289] (Propionyl-[Ala(6-iPr-benzothiazol-2-yl)][Cha]KL-NH2) |
| 967 nM | – | CCC(=O)N[C@@H](Cc1ccc2ccccc2c1)C(=O)N[C@@H](Cc1cccs1)C(=O)N[C@@H](CCCCN)C(=O)NC(c1ccccc1)c1ccccc1 [Example 24] |
| 116 nM | – | CCC(=O)N[C@@H](Cc1nc2ccc(C(C)C)cc2s1)C(=O)N[C@H](C(=O)N[C@@H](CCCCN)C(N)=O)C1CCCCC1 [Example 291] |
| 1340 nM | – | CCC(=O)N[C@H](CNC(=O)C1CCCCC1)Cc1nc2ccc(Cl)cc2s1 [Example 254] |
| 25.9 nM | – | CCC(=O)N[C@@H](Cc1nc2ccc(C(C)C)cc2s1)C(=O)N[C@H](CNC(=O)C1CCNCC1)C1CCCCC1 [Example 62, N—((S)-2-cyclohexyl-2-((S)-3-(6-isopropylbenzo[d]thiazol-2-yl)-2-propionamidopropanamido)ethyl)piperidine-4-carboxamide] |
| 378 nM | – | CCC(=O)N[C@@H](Cc1ccc2ccccc2c1)C(=O)N[C@H](C(=O)N[C@@H](CCCCN)C(=O)N[C@@H]1CCOc2ccccc21)C1CCCC1 [Example 149] |
| 2360 nM | – | CCC(=O)N[C@@H](Cc1ccc2ccccc2n1)C(=O)N[C@H](C(=O)N[C@@H](CCCCN)C(=O)NC(c1ccccc1)c1ccccc1)[C@@H](C)CC [Example 130] |
| 307 nM | – | CCC(=O)N[C@@H](Cc1nc2ccc(Cl)cc2s1)C(=O)N[C@H](C(=O)N[C@@H](CCCCN)C(=O)NC(c1ccc(F)cc1)c1ccc(F)cc1)C1CCCC1 [Example 158] |
| 122 nM | – | CCC(=O)N[C@@H](Cc1ccc2ccccc2c1)C(=O)N[C@H](C(=O)N[C@@H](CCCCN)C(=O)N[C@@H]1CCOc2cc(Cl)ccc21)C1CCCC1 [Example 165] |
| – | > 10000 nM | CCC(=O)N[C@@H](Cc1nc(C)c(-c2cccc(C(F)(F)F)c2)s1)C(=O)N[C@H](CN)Cc1ccccc1 [Example 233] |
| – | > 10000 nM | CCC(=O)N[C@@H](Cc1ccc(C)cn1)C(=O)N[C@H](C(=O)N[C@@H](CCCCN)C(=O)NC(c1ccccc1)c1ccccc1)[C@@H](C)CC [Example 135] |
| 913 nM | – | CCC(=O)N[C@@H](Cc1ccc2ccccc2c1)C(=O)N[C@H](C(=O)N[C@@H](CCCCN)C(=O)N[C@@H]1CCc2ccccc21)[C@@H](C)CC [Example 13] |
| 491 nM | – | CCC(=O)N[C@@H](Cc1nc2ccc(C)cc2s1)C(=O)N[C@H](CN)[C@@H](C)CC [Example 214] |

| IC50 [1] | IC50 [2] | Compound |
| --- | --- | --- |
| – | > 10000 nM | CCC(=O)N[C@@H](Cc1ccc2ccccc2c1)C(=O)N[C@H](C(=O)N[C@@H](CCCCN)C(=O)NCCc1ccccc1)[C@@H](C)CC [Example 11] (Propionyl-[2Nal]-Ile-Lys-NHPhenethyl) |
| < 100 nM | – | CCC(=O)N[C@@H](Cc1nc2ccc(C(C)C)cc2s1)C(=O)N[C@H](C(=O)N[C@@H](CCCCN)C(=O)N[C@@H](CC(C)C)C(N)=O)C1CCCC1 [Example 285] (Propionyl-[Ala(6-iPr-benzothiazol-2-yl)][Gly(cPent)]KL-NH2) |
| 1200 nM | – | CCC(=O)N[C@@H](Cc1nc2cc(F)ccc2s1)C(=O)N[C@H](C(=O)N[C@@H](CCCCN)C(=O)NC(c1ccccc1)c1ccccc1)C1CCCC1 [Example 27] |
| 69.4 nM | – | CCC(=O)N[C@@H](Cc1nc2ccc(C(C)C)cc2s1)C(=O)N[C@@H](C)C(=O)N[C@@H](CCCCN)C(=O)N[C@@H](CC(C)C)C(N)=O [Example 280] (Propionyl-[Ala(6-iPr-benzothiazol-2-yl)]AKL-NH2) |
| 122 nM | – | CC[C@H](C)[C@H](NC(=O)[C@H](Cc1nc2ccc(C(C)C)cc2s1)NC=O)C(=O)N[C@@H](CCCCN)C(=O)N[C@@H](CC(C)C)C(N)=O [Example 271] (For-[Ala(6-iPr-benzothiazol-2-yl)]IKL-NH2) |
| 55.6 nM | – | CCC(=O)N[C@@H](Cc1nc2ccc(C(C)C)cc2s1)C(=O)N[C@@H](Cc1ccccc1)C(=O)N[C@@H](CCCCN)C(=O)N[C@@H](CC(C)C)C(N)=O [Example 290] (Propionyl-[Ala(6-iPr-benzothiazol-2-yl)]FKL-NH2) |
| 297 nM | – | CCC(=O)N[C@@H](Cc1nc2ccc(Cl)cc2s1)C(=O)N[C@H](C(=O)N[C@@H](CCCCN)C(=O)NC(c1ccccn1)c1ccccn1)C1CCOCC1 [244 & 245] |
| 230 nM | – | CCC(=O)N[C@@H](Cc1nc2ccc(CC)cc2s1)C(=O)N[C@H](CN)[C@@H](C)CC [Example 215] |
| 89.9 nM | – | CCC(=O)N[C@@H](Cc1nc2ccc(C(C)C)cc2s1)C(=O)N[C@H](CNC(=O)CCN1CCOCC1)Cc1ccccc1 [Example 93] |
| 1280 nM | – | CCC(=O)N[C@@H](Cc1nc(C)c(-c2cccc(F)c2)s1)C(=O)N[C@H](CN)Cc1ccccc1 [Example 234] |
| 242 nM | – | CCC(=O)N[C@@H](Cc1nc2ccc(C(C)C)cc2s1)C(=O)NC(CSc1nncn1C)C1CCCCC1 (stereo partly shown) [Example 84] |
| – | > 10000 nM | CCC(=O)N[C@H](CN)Cc1nc2ccc(C(C)C)cc2s1 [Example 109] |
| 281 ± 29 nM | – | CC[C@H](C)[C@@H](CN)NC(=O)[C@H](Cc1nc2ccc(C(C)C)cc2s1)NC(C)=O [Example 46, (S)-2-acetamido-N-((2S,3S)-1-amino-3-methylpentan-2-yl)-3-(6-isopropylbenzo[d]thiazol-2-yl)propanamide] |
| – | > 10000 nM | CCC(=O)N[C@@H](Cc1nc2ccc(Cl)cc2s1)C(=O)NCCN [Example 235] |
| 79 nM | – | CCC(=O)N[C@@H](Cc1nc2ccc(CC)cc2s1)C(=O)N[C@H](C(=O)N[C@@H](CCCCN)C(=O)N[C@@H]1CCOc2ccccc21)C1CCCC1 [Example 176] |
| 322 nM | – | CC[C@H](C)[C@H](NC(=O)[C@H](Cc1nc2ccccc2s1)NC(C)=O)C(=O)N[C@@H](CCCCN)C(=O)N[C@@H](CC(C)C)C(N)=O [Example 2, (S)-2-((2S,3 S)-2-((S)-2-acetamido-3-(benzo[d]thiazol-2-yl)propanamido)-3-methylpentanamido)-6-amino-N—((S)-1-amino-4-methyl-1-oxopentan-2-yl)hexanamide] (Ac-[Ala(benzothiazol-2-yl)]IKL-NH2) |
| 84.3 nM | – | CCC(=O)N[C@@H](Cc1nc2ccc(Cl)cc2s1)C(=O)N[C@H](C(=O)N[C@@H](CCCCN)C(=O)N[C@@H]1CNCc2ccccc21)C1CCOCC1 [Example 43] |
| 1200 nM | – | CCC(=O)N[C@@H](Cc1nc2cc(Cl)ccc2o1)C(=O)N[C@H](C(=O)N[C@@H](CCCCN)C(=O)NC(c1ccccc1)c1ccccc1)[C@@H](C)CC [Example 155] |
| – | > 10000 nM | CCC(=O)N[C@H](Cc1nc2ccc(Cl)cc2s1)C(=O)N[C@@H](C[C@H]1CC[C@H](CN)CC1)C(=O)N[C@@H](CCCCN)C(=O)N[C@@H]1CCOc2ccccc21 [Example 201] |
| 886 nM | – | CCC(=O)N[C@@H](Cc1nc(C)c(C(C)C)s1)C(=O)N[C@H](C(=O)N[C@@H](CCCCN)C(=O)N[C@@H]1CCOc2ccccc21)C1CCOCC1 [Example 187] |
| – | > 10000 nM | CCC(=O)N[C@@H](Cc1ccc2ccccc2c1)C(=O)N[C@H](C(=O)N[C@@H](CN(C)C)C(=O)NC(c1ccc(F)cc1)c1ccc(F)cc1)C1CCCC1 [Example 139] |
| 58.1 nM | – | CCC(=O)N[C@@H](Cc1nc2ccc(C)cc2s1)C(=O)N[C@H](C(=O)N[C@@H](CCCCN)C(=O)NC(c1ccccc1)c1ccccc1)C1CCCC1 [Example 173] |
| 90.6 nM | – | CCC(=O)N[C@@H](Cc1nc2ccc(C)cc2s1)C(=O)N[C@H](C(=O)N[C@@H](CCCCN)C(=O)N[C@@H]1CCOc2ccccc21)C1CCCC1 [Example 175] |
| 517 nM | – | CC[C@H](C)[C@H](NC(=O)[C@H](Cc1nc2ccc(C(C)C)cc2s1)NC(=O)CC(C)C)C(=O)N[C@@H](CCCCN)C(=O)N[C@@H](CC(C)C)C(N)=O [Example 277] (Isovaleryl-[Ala(6-iPr-benzothiazol-2-yl)]IKL-NH2) |

| Compound | IC50 [1] | IC50 [2] |
| --- | --- | --- |
| CCC(=O)N[C@@H](Cc1ccc2ccccc2c1)C(=O)N[C@H](C(=O)N[C@@H](CCCCN)C(=O)NC(c1ccccc1)c1ccccc1)C1CCCC1 [Example 19] | 270 nM | – |
